Assay results: the NIST ThermoML archive (doi:10.1016/j.jct.2018.11.011)

O=C([O][Sb]([c]1ccccc1)([c]1ccccc1)([c]1ccccc1)[c]1ccccc1)c1ccccc1 [tetraphenylantimony benzoate]
101.33 kPa
Settings	mass density [kg/m3]	molar entropy [J/K/mol]
5 K, Crystal, Small (less than 1 g) adiabatic calorimetry	–	0.567
10 K, Crystal, Small (less than 1 g) adiabatic calorimetry	–	4.1
15 K, Crystal, Small (less than 1 g) adiabatic calorimetry	–	11.1
20 K, Crystal, Small (less than 1 g) adiabatic calorimetry	–	20.79
25 K, Crystal, Small (less than 1 g) adiabatic calorimetry	–	31.83
30 K, Crystal, Small (less than 1 g) adiabatic calorimetry	–	43.78
35 K, Crystal, Small (less than 1 g) adiabatic calorimetry	–	56.29
40 K, Crystal, Small (less than 1 g) adiabatic calorimetry	–	69.07
45 K, Crystal, Small (less than 1 g) adiabatic calorimetry	–	81.95
50 K, Crystal, Small (less than 1 g) adiabatic calorimetry	–	94.78
60 K, Crystal, Small (less than 1 g) adiabatic calorimetry	–	120.2
70 K, Crystal, Small (less than 1 g) adiabatic calorimetry	–	145.3
80 K, Crystal, Small (less than 1 g) adiabatic calorimetry	–	169.9
90 K, Crystal, Small (less than 1 g) adiabatic calorimetry	–	194.1
100 K, Crystal, Small (less than 1 g) adiabatic calorimetry	–	217.6
120 K, Crystal, Small (less than 1 g) adiabatic calorimetry	–	262.3
140 K, Crystal, Small (less than 1 g) adiabatic calorimetry	–	305.1
160 K, Crystal, Small (less than 1 g) adiabatic calorimetry	–	346.3
180 K, Crystal, Small (less than 1 g) adiabatic calorimetry	–	386.3
200 K, Crystal, Small (less than 1 g) adiabatic calorimetry	–	425.4
220 K, Crystal, Small (less than 1 g) adiabatic calorimetry	–	463.9
240 K, Crystal, Small (less than 1 g) adiabatic calorimetry	–	501.9
260 K, Crystal, Small (less than 1 g) adiabatic calorimetry	–	539.8
273.15 K, Crystal, Small (less than 1 g) adiabatic calorimetry	–	564.6
280 K, Crystal, Small (less than 1 g) adiabatic calorimetry	–	577.5
298.15 K, Crystal, Small (less than 1 g) adiabatic calorimetry	–	611.7
298.15 K, Crystal, X-ray diffraction	1438	–
300 K, Crystal, Small (less than 1 g) adiabatic calorimetry	–	615.3
320 K, Crystal, Small (less than 1 g) adiabatic calorimetry	–	653.4
340 K, Crystal, Small (less than 1 g) adiabatic calorimetry	–	691
360 K, Crystal, Small (less than 1 g) adiabatic calorimetry	–	729
380 K, Crystal, Small (less than 1 g) adiabatic calorimetry	–	768
400 K, Crystal, Small (less than 1 g) adiabatic calorimetry	–	807
420 K, Crystal, Small (less than 1 g) adiabatic calorimetry	–	848
437.5 K, Crystal, Small (less than 1 g) adiabatic calorimetry	–	881
437.5 K, Liquid, DSC	–	940
440 K, Liquid, DSC	–	948
460 K, Liquid, DSC	–	989
480 K, Liquid, DSC	–	1030

Settings	Normal melting temperature [°C]
Crystal, DTA	164.4
